Reference: the supplement of paper PMC11061612

Experiments:
Carboplatin = compound: C1CC(C1)(C(=O)[O-])C(=O)[O-].N.N.[Pt+2] [Carboplatin]; details: max 10 µM
Summary of the method: (§1)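 Cancer cell lines were plated in 1536-well plates in 7.5 μl of DMEM/F12 or RPMI with 10% FBS and kept 24 hours at 37°C and 5% CO2 before 72 hours of dosing, with final DMSO typically 0.2%. CellTiter-Glo 2.0 luminescence measured viability, scaled between blank-well and DMSO-well means. Dose responses were fitted to a two-parameter logistic curve with a non-linear mixed effects model. This fit gives the single-agent IC50.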

AZD5363 = compound: C1CN(CCC1(C(=O)N[C@@H](CCO)C2=CC=C(C=C2)Cl)N)C3=NC=NC4=C3C=CN4 [AZD5363]; details: max 10 µM
Summary of the method: as §1

AZD1775 = compound: C=CCn1c(=O)c2cnc(Nc3ccc(N4CCN(C)CC4)cc3)nc2n1-c1cccc(C(C)(C)O)n1 [AZD1775]; details: max 3 µM
Summary of the method: as §1

Trametinib = compound: CC(=O)Nc1cccc(-n2c(=O)n(C3CC3)c(=O)c3c(Nc4ccc(I)cc4F)n(C)c(=O)c(C)c32)c1 [Trametinib]; details: max 1 µM
Summary of the method: as §1

Paclitaxel = compound: CC(=O)O[C@H]1C(=O)[C@@]2(C)[C@H]([C@H](OC(=O)c3ccccc3)[C@]3(O)C[C@H](OC(=O)[C@H](O)[C@@H](NC(=O)c4ccccc4)c4ccccc4)C(C)=C1C3(C)C)[C@]1(OC(C)=O)CO[C@@H]1C[C@@H]2O [Paclitaxel]; details: max 3 µM
Summary of the method: as §1

Palbociclib = compound: CC(=O)c1c(C)c2cnc(Nc3ccc(N4CCNCC4)cn3)nc2n(C2CCCC2)c1=O [Palbociclib]; details: max 10 µM
Summary of the method: as §1

AZD1390 = compound: CC(C)n1c(=O)n(C)c2cnc3cc(F)c(-c4ccc(OCCCN5CCCCC5)nc4)cc3c21 [AZD1390]; details: max 0.3 µM
Summary of the method: as §1

Venetoclax = compound: CC1(C)CCC(CN2CCN(c3ccc(C(=O)NS(=O)(=O)c4ccc(NCC5CCOCC5)c([N+](=O)[O-])c4)c(Oc4cnc5[nH]ccc5c4)c3)CC2)=C(c2ccc(Cl)cc2)C1 [Venetoclax]; details: max 1 µM
Summary of the method: as §1

Dasatinib = compound: CC1=C(C(=CC=C1)Cl)NC(=O)C2=CN=C(S2)NC3=CC(=NC(=N3)C)N4CCN(CC4)CCO [Dasatinib]; details: max 2 µM
Summary of the method: as §1

SG3199 = compound: CC1=CN2[C@@H](C1)C=NC3=CC(=C(C=C3C2=O)OC)OCCCCCOC4=C(C=C5C(=C4)N=C[C@@H]6CC(=CN6C5=O)C)OC [SG3199]; details: max 0.001 µM
Summary of the method: as §1

AZD2811 = compound: CCN(CCO)CCCOc1ccc2c(Nc3cc(CC(=O)Nc4cccc(F)c4)[nH]n3)ncnc2c1 [AZD2811]; details: max 1 µM
Summary of the method: as §1

SN-38 = compound: CCc1c2c(nc3ccc(O)cc13)-c1cc3c(c(=O)n1C2)COC(=O)[C@]3(O)CC [SN-38]; details: max 0.3 µM
Summary of the method: as §1

AZD0156 = compound: CN(C)CCCOc1ccc(-c2ccc3ncc4c(c3c2)n(C2CCOCC2)c(=O)n4C)cn1 [AZD0156]; details: max 3 µM
Summary of the method: as §1

AZD4320 = compound: CN(CC[C@H](CSC1=CC=CC=C1)NC2=C(C=C(C=C2)S(=O)(=O)NC(=O)C3=CC=C(C=C3)N4CCC(CC4)[C@H](C5=CC=CC=C5C6=CC=C(C=C6)Cl)O)S(=O)(=O)C(F)(F)F)CCO [AZD4320]; details: max 1 µM
Summary of the method: as §1

Alisertib = compound: COc1cc(Nc2ncc3c(n2)-c2ccc(Cl)cc2C(c2c(F)cccc2OC)=NC3)ccc1C(=O)O [Alisertib]; details: max 10 µM
Summary of the method: as §1

Etoposide = compound: COc1cc([C@@H]2c3cc4c(cc3[C@@H](O[C@@H]3O[C@@H]5CO[C@@H](C)O[C@H]5[C@H](O)[C@H]3O)[C@H]3COC(=O)[C@H]23)OCO4)cc(OC)c1O [Etoposide]; details: max 10 µM
Summary of the method: as §1

Gefitinib = compound: COc1cc2ncnc(Nc3ccc(F)c(Cl)c3)c2cc1OCCCN1CCOCC1 [Gefitinib]; details: max 10 µM
Summary of the method: as §1

Prexasertib = compound: COc1cccc(OCCCN)c1-c1cc(Nc2cnc(C#N)cn2)n[nH]1 [Prexasertib]; details: max 1 µM
Summary of the method: as §1

Doxorubicin = compound: COc1cccc2c1C(=O)c1c(O)c3c(c(O)c1C2=O)C[C@@](O)(C(=O)CO)C[C@@H]3O[C@H]1C[C@H](N)[C@H](O)[C@H](C)O1 [Doxorubicin]; details: max 1 µM
Summary of the method: as §1

AZD5153 = compound: COc1nnc2ccc(N3CCC(c4ccc(OCCN5CCN(C)C(=O)[C@H]5C)cc4)CC3)nn12 [AZD5153]; details: max 1 µM
Summary of the method: as §1

Lapatinib = compound: CS(=O)(=O)CCNCc1ccc(-c2ccc3ncnc(Nc4ccc(OCc5cccc(F)c5)c(Cl)c4)c3c2)o1 [Lapatinib]; details: max 10 µM
Summary of the method: as §1

AZD8186 = compound: C[C@@H](Nc1cc(F)cc(F)c1)c1cc(C(=O)N(C)C)cc2c(=O)cc(N3CCOCC3)oc12 [AZD8186]; details: max 10 µM
Summary of the method: as §1

Crizotinib = compound: C[C@@H](Oc1cc(-c2cnn(C3CCNCC3)c2)cnc1N)c1c(Cl)ccc(F)c1Cl [Crizotinib]; details: max 10 µM
Summary of the method: as §1

Savolitinib = compound: C[C@@H](c1ccc2nccn2c1)n1nnc2ncc(-c3cnn(C)c3)nc21 [Savolitinib]; details: max 1 µM
Summary of the method: as §1

AZD6738 = compound: C[C@@H]1COCCN1C2=NC(=NC(=C2)C3(CC3)[S@](=N)(=O)C)C4=C5C=CNC5=NC=C4 [AZD6738]; details: max 10 µM
Summary of the method: as §1

AZD5991 = compound: Cc1c2c(nn1C)CSCc1cc(n(C)n1)CSc1cc(c3ccccc3c1)OCCCc1c(C(=O)O)n(C)c3c-2c(Cl)ccc13 [AZD5991]; details: max 1 µM
Summary of the method: as §1

AZD7648 = compound: Cc1cc2ncnn2cc1Nc1ncc2c(n1)n(C1CCOCC1)c(=O)n2C [AZD7648]; details: max 10 µM
Summary of the method: as §1

Taselisib = compound: Cc1nc(-c2cn3c(n2)-c2ccc(-c4cnn(C(C)(C)C(N)=O)c4)cc2OCC3)n(C(C)C)n1 [Taselisib]; details: max 10 µM
Summary of the method: as §1

Selumetinib = compound: Cn1cnc2c(F)c(Nc3ccc(Br)cc3Cl)c(C(=O)NOCCO)cc21 [Selumetinib]; details: max 10 µM
Summary of the method: as §1

SRA737 = compound: N#Cc1cnc(Nc2cc(NC[C@H]3CNCCO3)c(C(F)(F)F)cn2)cn1 [SRA737]; details: max 10 µM
Summary of the method: as §1

MK-2206 = compound: NC1(c2ccc(-c3nc4ccn5c(=O)[nH]nc5c4cc3-c3ccccc3)cc2)CCC1 [MK-2206]; details: max 10 µM
Summary of the method: as §1

Gemcitabine = compound: Nc1ccn([C@@H]2O[C@H](CO)[C@@H](O)C2(F)F)c(=O)n1 [Gemcitabine]; details: max 0.3 µM
Summary of the method: as §1

[1] = compound: O=C(Nc1ccc2[nH]nc(-c3ccncc3)c2c1)[C@@H]1CCN(CC(=O)N2CCN(c3ccc(-c4ncccn4)cc3)CC2)C1; details: max 5 µM
Summary of the method: as §1

Olaparib = compound: O=C(c1cc(Cc2n[nH]c(=O)c3ccccc23)ccc1F)N1CCN(C(=O)C2CC2)CC1 [Olaparib]; details: max 10 µM
Summary of the method: as §1

5-Fluorouracil = compound: O=c1[nH]cc(F)c(=O)[nH]1 [5-Fluorouracil]; details: max 20 µM
Summary of the method: as §1

Row | Cell Line | IC50, cell viability 72 h (Carboplatin) [nM] | IC50, cell viability 72 h (AZD5363) [nM] | IC50, cell viability 72 h (AZD1775) [nM] | IC50, cell viability 72 h (Trametinib) [nM] | IC50, cell viability 72 h (Paclitaxel) [nM] | IC50, cell viability 72 h (Palbociclib) [nM] | IC50, cell viability 72 h (AZD1390) [nM] | IC50, cell viability 72 h (Venetoclax) [nM] | IC50, cell viability 72 h (Dasatinib) [nM] | IC50, cell viability 72 h (SG3199) [nM] | IC50, cell viability 72 h (AZD2811) [nM] | IC50, cell viability 72 h (SN-38) [nM] | IC50, cell viability 72 h (AZD0156) [nM] | IC50, cell viability 72 h (AZD4320) [nM] | IC50, cell viability 72 h (Alisertib) [nM] | IC50, cell viability 72 h (Etoposide) [nM] | IC50, cell viability 72 h (Gefitinib) [nM] | IC50, cell viability 72 h (Prexasertib) [nM] | IC50, cell viability 72 h (Doxorubicin) [nM] | IC50, cell viability 72 h (AZD5153) [nM] | IC50, cell viability 72 h (Lapatinib) [nM] | IC50, cell viability 72 h (AZD8186) [nM] | IC50, cell viability 72 h (Crizotinib) [nM] | IC50, cell viability 72 h (Savolitinib) [nM] | IC50, cell viability 72 h (AZD6738) [nM] | IC50, cell viability 72 h (AZD5991) [nM] | IC50, cell viability 72 h (AZD7648) [nM] | IC50, cell viability 72 h (Taselisib) [nM] | IC50, cell viability 72 h (Selumetinib) [nM] | IC50, cell viability 72 h (SRA737) [nM] | IC50, cell viability 72 h (MK-2206) [nM] | IC50, cell viability 72 h (Gemcitabine) [nM] | IC50, cell viability 72 h [1] [nM] | IC50, cell viability 72 h (Olaparib) [nM] | IC50, cell viability 72 h (5-Fluorouracil) [nM]
1 | LOUCY (T-Lymphoblastic Leukemia) | > 10000 | 2450 | 257 | > 1000 | 13.5 | > 10000 | > 300 | 31.7 | > 2000 | > 1 | 8.15 | 172 | > 3000 | 3.75 | 597 | 5000 | > 10000 | 6.97 | > 1000 | 385 | > 10000 | > 10000 | 4000 | > 1000 | 1310 | > 1000 | 7430 | 3530 | > 10000 | 2720 | 1230 | > 300 | > 5000 | > 10000 | > 20000
2 | NCI-H810 (Non-Small Cell Lung Carcinoma) | > 10000 | > 10000 | 437 | > 1000 | 282 | > 10000 | > 300 | > 1000 | > 2000 | > 1 | 330 | 202 | > 3000 | > 1000 | 1380 | > 10000 | > 10000 | 52.8 | 880 | 442 | > 10000 | > 10000 | > 10000 | > 1000 | > 10000 | > 1000 | > 10000 | > 10000 | > 10000 | > 10000 | > 10000 | > 300 | > 5000 | > 10000 | > 20000
3 | NCI-H1755 (Lung Adenocarcinoma) | > 10000 | > 10000 | 363 | 444 | 58.2 | 9000 | > 300 | > 1000 | 211 | > 1 | > 1000 | > 300 | > 3000 | > 1000 | 3910 | > 10000 | > 10000 | 10.8 | > 1000 | > 1000 | > 10000 | > 10000 | 3970 | > 1000 | 2080 | > 1000 | > 10000 | 2410 | > 10000 | 2300 | > 10000 | > 300 | 1950 | > 10000 | > 20000
4 | NKM-1 (Acute Myeloid Leukemia) | > 10000 | 8120 | 455 | 83.3 | 3.66 | 1250 | > 300 | 102 | 147 | > 1 | 502 | 2.01 | > 3000 | 7.73 | 177 | 496 | > 10000 | 15 | 24.1 | 59.4 | > 10000 | 1270 | 2030 | > 1000 | 1860 | 49.3 | > 10000 | 201 | 2700 | 2370 | 855 | 5.13 | 2000 | 4420 | 3190
5 | OV-90 (Ovarian Carcinoma) | > 10000 | > 10000 | > 3000 | 83.7 | > 3000 | > 10000 | > 300 | > 1000 | > 2000 | > 1 | > 1000 | 265 | > 3000 | > 1000 | > 10000 | > 10000 | > 10000 | 523 | > 1000 | > 1000 | > 10000 | > 10000 | > 10000 | > 1000 | > 10000 | > 1000 | > 10000 | > 10000 | 7810 | > 10000 | > 10000 | > 300 | 1880 | > 10000 | > 20000
